Experimental findings from US20250144102A1, “1 H-PYRAZOLO[4,3-D]PYRIMIDINE DERIVATIVES AS STAPHYLOCOCCUS AUREUS INHIBITORS” (DR REDDY'S INSTITUTE OF LIFE SCIENCES, priority 2022, published 2025) are described below.

Type in all cases: cell-based
The test system of experiment [1] is Gram-positive Staphylococcus aureus strains, including MRSA and GR-MRSA. Briefly: MIC, summary over S. aureus strains. The following applies: various Staphylococcus aureus strains, including MRSA and GR-MRSA (text summary of Table 1). As to the method:
(§1) Compound 7 was tested to evaluate its inhibitory effect on Staphylococcus aureus. An experiment was conducted to assess the minimum inhibitory concentration (MIC) of the compound of Formula (I).
(§2) 20.0 mg of test compound was weighed and dissolved in 0.5 mL of filtered DMSO (100%) to prepare a stock solution of 40 mg/mL concentration. Initial stock (Stock 1 and Stock 2) and working stock solution (10 concentrations) were prepared as mentioned in the table below. Final testing concentration in the micro-titer plates was starting from 1000 μg/mL in experiment plate.
(§3) The reference standards gentamicin, norfloxacin and levofloxacin were dissolved using sterile ultrapure water to prepare a stock solution of 2.0 mg/mL concentration. Working stock solution of 64 μg/mL was prepared in CAMHB by diluting 0.032 mL of 2.0 mg/mL stock solution in 0.968 mL of growth medium. The testing concentration in the micro-titer plates is 32 μg/mL.
Tester strains were sub-cultured on Soyabean Casein digest Agar (SCDA) and incubated at 37° C. for 18-20 hours in aerobic condition. After incubation, the isolated colonies were suspended in sterile saline to prepare the bacterial suspension. The bacterial suspension was adjusted to ˜1×10^8 CFU/mL. […]
After incubation, visual readings were recorded, and the optical density was measured at 600 nm in spectrophotometer. […]

Experiment [2] concerns Klebsiella pneumoniae ATCC 700603. Put plainly: MIC broth microdilution, K. pneumoniae ATCC 700603. The conditions noted are these: 37° C., 18-20 hours, 90% growth inhibition. The protocol: [The source words this procedure for another organism and reports this organism under the same test.] as §1, §2, §3
(§4) Tester strains were sub-cultured on Soyabean Casein digest Agar (SCDA) and incubated at 37° C. for 18-20 hours in aerobic condition. After incubation, the isolated colonies were suspended in sterile saline to prepare the bacterial suspension. The bacterial suspension was adjusted to ˜1×10^8 CFU/mL.
(§5) ? titer plates (Flat bottom) were prepared as per the CLSI recommendations. The test compound and reference compounds dilution were performed in the micro titer plates. Two hundred microliters of respective growth medium were added to the wells of a 96-wellflat bottom plate well A1 to E1 for Broth control. One hundred microliters of respective growth medium were added to all the wells B3 to B11, C3 to C11, D3 to D11, E3 to E11 except B2 to E2. One hundred microliters of prepared test compound 7 working stock solution (10 concentrations) were added from A2 to A11. Two hundred microliters of reference Standard were added to B2, C2 and D2. Two hundred microliters of DMSO were to E2 as negative control. One hundred microliter was transferred from B2, C2, D2 and E2 wells B3, C3, D3 and E3 wells respectively and serially diluted up to B11, C11, D11 and E11 wells. One hundred microliter after serial dilution was discarded from Bit, C11, D11 and E11 wells, wells A12 to F12 serve as culture control.
(§6) The adjusted bacterial suspension was further diluted in CAMHB (Section 6.5), 100 μl of diluted culture was added to micro titer plate where the final concentration was 5×10^5 CFU/mL. Plates were incubated at 37° C. for 18-20 hours at aerobic conditions.
(§7) After incubation, visual readings were recorded, and the optical density was measured at 600 nm in spectrophotometer. The concentration of compound at 90% growth was inhibited compared to growth control was considered as the MIC value.
A general note: Dilution methods test growth across graded concentrations, often in twofold steps.

The test system of experiment [3] is Staphylococcus aureus ATCC700699. Briefly: MIC broth microdilution, S. aureus ATCC700699. The following applies: Staphylococcus aureus ATCC700699 (resistant to Methicillin and Oxacillin), CAMHB, 37° C., 18-20 hours, 90% growth inhibition. The protocol: as §1, §2, §3, §4, §5, §6, §7
The subject of experiment [4] is Pseudomonas aeruginosa ATCC 9027. Briefly: MIC broth microdilution, P. aeruginosa ATCC 9027. The conditions noted are these: 37° C., 18-20 hours, 90% growth inhibition. As to the method: [The source words this procedure for another organism and reports this organism under the same test.] as §1, §2, §3, §4, §5, §6, §7
The test system of experiment [5] is Staphylococcus aureus (Gentamicin resistant) ATCC43300. Put plainly: MIC broth microdilution, S. aureus ATCC43300. The conditions noted are these: Staphylococcus aureus ATCC43300 (resistant to Methicillin, Oxacillin, Gentamicin and Azithromycin), CAMHB, 37° C., 18-20 hours, 90% growth inhibition. The protocol:
as §1, §2, §3, §4, §5, §6, §7

The test system of experiment [6] is Staphylococcus aureus ATCC25923. Put plainly: MIC broth microdilution, S. aureus ATCC25923. The conditions noted are these: Staphylococcus aureus ATCC25923 (sensitive strain), CAMHB, 37° C., 18-20 hours, 90% growth inhibition. The protocol: as §1, §2, §3, §4, §5, §6, §7
In experiment [7] the test system is Staphylococcus aureus ATCC29213. Put plainly: MIC broth microdilution, S. aureus ATCC29213. The following applies: Staphylococcus aureus ATCC29213 (sensitive strain), CAMHB, 37° C., 18-20 hours, 90% growth inhibition. As to the method:
as §1, §2, §3, §4, §5, §6, §7

Experiment [8] has as its system Escherichia coli ATCC9637. Put plainly: MIC broth microdilution, E. coli ATCC9637. The following applies: CAMHB, 37° C., 18-20 hours, 90% growth inhibition. The protocol: [The source words this procedure for another organism and reports this organism under the same test.] as §1, §2, §3, §4, §5, §6, §7
[9] abbreviates: ATCC700603, CAMHB, read-out: MIC.

≈ marks a conversion by molar mass, not a printed value. Like-named read-outs stand apart in the source and are kept apart here.

With `CCCc1nn(C)c2c(-c3c[nH]c4ccc(Cl)cc34)nc(-c3ccc(Cl)cc3)nc12` [Compound 7, 7-(5-chloro-1H-indol-3-yl)-5-(4-chlorophenyl)-1-methyl-3-propyl-1H-pyrazolo[4,3-d]pyrimidine], the MIC (as a rule, the lowest concentration found to suppress growth) in experiment [1] is 1 µg/mL (≈ 2.29 µM); in experiment [2] (setting [9]), above 1000 µg/mL; in experiment [3] (read-out: MIC), 1 µg/mL (≈ 2.29 µM); in experiment [4] (ATCC9027, CAMHB, read-out: MIC), above 1000 µg/mL; in experiment [5] (read-out: MIC), 1 µg/mL (≈ 2.29 µM); in experiment [6] (read-out: MIC), 1 µg/mL (≈ 2.29 µM). The MIC was 1 µg/mL (≈ 2.29 µM) in experiment [7] (read-out: MIC) and above 1000 µg/mL in experiment [8] (read-out: MIC).
On to `C[C@H]1COc2c(N3CCN(C)CC3)c(F)cc3c(=O)c(C(=O)O)cn1c23` [Levofloxacin, levofloxacin], for which the MIC in experiment [2] (setting [9]) came out at 0.5 µg/mL (≈ 1.38 µM); in experiment [3] (read-out: MIC), 16 µg/mL (≈ 44.3 µM); in experiment [4] (ATCC9027, CAMHB, read-out: MIC), 0.5 µg/mL (≈ 1.38 µM); in experiment [5] (read-out: MIC), 0.13 µg/mL (≈ 0.36 µM); in experiment [6] (read-out: MIC), 0.13 µg/mL (≈ 0.36 µM); in experiment [7] (read-out: MIC) it was 0.13 µg/mL (≈ 0.36 µM). Also, in experiment [8] (read-out: MIC), the MIC is at most 0.06 µg/mL.
With `CCn1cc(C(=O)O)c(=O)c2cc(F)c(N3CCNCC3)cc21` [Norfloxacin, norfloxacin], the MIC is 4 µg/mL (≈ 12.5 µM) in experiment [2] (setting [9]); above 32 µg/mL in experiment [3] (read-out: MIC); 0.5 µg/mL (≈ 1.57 µM) in experiment [4] (ATCC9027, CAMHB, read-out: MIC); 1 µg/mL (≈ 3.13 µM) in experiment [5] (read-out: MIC); 2 µg/mL (≈ 6.26 µM) in experiment [6] (read-out: MIC); 1 µg/mL (≈ 3.13 µM) in experiment [7] (read-out: MIC). Also, the MIC in experiment [8] (read-out: MIC) is at most 0.06 µg/mL.
In the case of gentamicin, the MIC is 16.00 µg/mL in experiment [2] (CAMHB); above 32.00 µg/mL in experiment [3]; 2.00 µg/mL in experiment [4] (CAMHB); above 32.00 µg/mL in experiment [5]; 0.25 µg/mL in experiment [6]; 0.50 µg/mL in experiment [7]. The compound further displayed an MIC in experiment [8] of 1.00 µg/mL.
